The record followed here is patent US20110230472A1, “RING-FUSED AZOLE DERIVATIVE HAVING PI3K-INHIBITING ACTIVITY” (Shionogi & Co., Ltd., priority 2008, published 2011).

SMILES strings stand for the structures.

PI-3 kinase γ, sequence (P48736 whole entry): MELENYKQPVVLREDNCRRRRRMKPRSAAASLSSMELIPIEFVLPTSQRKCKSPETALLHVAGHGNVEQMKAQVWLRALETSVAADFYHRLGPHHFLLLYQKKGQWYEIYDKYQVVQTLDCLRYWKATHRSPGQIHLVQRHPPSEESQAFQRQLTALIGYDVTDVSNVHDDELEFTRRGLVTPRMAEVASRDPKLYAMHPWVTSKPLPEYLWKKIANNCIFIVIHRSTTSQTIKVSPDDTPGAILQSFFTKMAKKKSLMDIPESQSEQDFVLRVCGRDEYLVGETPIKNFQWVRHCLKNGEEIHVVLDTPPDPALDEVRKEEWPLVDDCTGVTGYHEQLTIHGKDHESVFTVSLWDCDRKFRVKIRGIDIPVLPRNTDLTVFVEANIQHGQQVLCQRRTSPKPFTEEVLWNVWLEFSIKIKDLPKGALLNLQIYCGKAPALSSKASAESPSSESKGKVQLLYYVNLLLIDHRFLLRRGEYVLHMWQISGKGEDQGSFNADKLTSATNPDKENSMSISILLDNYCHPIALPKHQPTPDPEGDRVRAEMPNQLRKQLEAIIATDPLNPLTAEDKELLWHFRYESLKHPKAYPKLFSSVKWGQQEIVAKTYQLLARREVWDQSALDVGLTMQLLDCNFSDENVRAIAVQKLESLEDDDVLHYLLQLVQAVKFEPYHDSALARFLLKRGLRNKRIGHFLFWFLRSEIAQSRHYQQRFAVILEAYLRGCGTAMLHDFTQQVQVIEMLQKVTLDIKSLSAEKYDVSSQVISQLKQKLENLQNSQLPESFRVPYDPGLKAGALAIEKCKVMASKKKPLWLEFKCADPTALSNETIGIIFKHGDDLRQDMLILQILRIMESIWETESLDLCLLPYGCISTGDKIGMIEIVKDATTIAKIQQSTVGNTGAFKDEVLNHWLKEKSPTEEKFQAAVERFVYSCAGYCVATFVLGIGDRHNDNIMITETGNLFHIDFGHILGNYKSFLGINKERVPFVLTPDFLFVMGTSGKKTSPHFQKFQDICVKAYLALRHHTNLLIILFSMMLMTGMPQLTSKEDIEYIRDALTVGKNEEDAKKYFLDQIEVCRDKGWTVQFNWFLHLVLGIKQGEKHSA

For the first test, the target named is PI-3 kinase γ (Homo sapiens, UniProt P48736). Nature of the test: PI3Kγ inhibitory activity, PI3-kinase HTRF assay (inhibition ratio). It counts as biochemical. To be noted: 0.5 h; PI3Kγ, compound at 10 μM. Summed up:
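PI3Kγ preincubated 10 min with compound and PIP2 substrate (MgCl2, DTT), then ATP added for 30 min at room temperature. PIP3 detected by HTRF (665/620 nm ratio) after 18 h. Inhibition ratio at 50 or 10 μmol/L, normalised to no-compound and no-enzyme controls.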
For orientation: TR-FRET usually uses a lanthanide donor and a delayed reading to cut background.
For the molecule `CC(=O)Nc1cc2n(n1)CCN2c1ccc2c(c1)CCC2=O` [Compound I-283], the inhibition (as a rule, how much of the control response was suppressed) at 10 µM is no less than 95%. For the molecule `COc1cc(N2CCc3nc(NC(=O)NCCCC(=O)OC(C)(C)C)sc3C2)nc(OC)n1` [Compound I-261], the inhibition at 10 µM turned out to be 90%. Regarding `COc1cc(N2CCc3nc(NC(=O)NCC(=O)OC(C)(C)C)sc3C2)nc(OC)n1` [Compound I-252], the inhibition at 10 µM was determined as 88%.

Turning to `COc1cccc(CC(=O)Nc2nc3c(s2)CN(c2cc(OC)nc(OC)n2)CC3)c1` [Compound I-251], the inhibition at 10 µM amounted to 88%.

In the case of `COc1cc(N2CCc3nc(NC(=O)NCCC(=O)N4CCC[C@H]4C(=O)OC(C)(C)C)sc3C2)nc(OC)n1` [Compound I-275], the inhibition at 10 µM was no less than 95%. The same measure, in the same setting: to `COc1cc(N2CCc3nc(NC(=O)Cc4cccc(C(F)(F)F)c4)sc3C2)nc(OC)n1` [Compound I-269] belongs no less than 95%.

The same test, now with this note: 0.5 h; PI3Kγ, compound at 50 μM.
On to `O=C(Nc1cc2n(n1)CCN2c1ccccc1)c1ccccc1` [Compound I-135], for which the inhibition at 50 µM is no less than 95%.

Turning to `CNC(=O)Nc1cc2n(n1)CCN2c1cc(Nc2ccccc2)cc(C(=O)OC)c1` [Compound I-162], the inhibition at 50 µM was no less than 95%. Consider `CNC(=O)Nc1cc2n(n1)CCN2C(=O)Oc1ccccc1` [Compound I-51], for which the inhibition at 50 µM is 87%. With `COc1cccc(N2CCn3nc(NC(C)=O)cc32)c1` [Compound I-139], the inhibition at 50 µM is no less than 95%. Consider `CNC(=O)Nc1cc2n(n1)CCN2c1cc(C#CCOC)cc(C(=O)N2CCOCC2)c1` [Compound I-233], for which the inhibition at 50 µM turned out to be 84%. The same measure, in the same setting: to `CC(=O)Nc1cc2n(n1)CCN2C(=O)OC(C)(C)C` [Compound I-130] belongs no less than 95%.

For the molecule `CNC(=O)Nc1cc2n(n1)CCN2c1ccc2c(c1)CCC2=O` [Compound I-193], the inhibition at 50 µM was no less than 95%. Consider `CCOC(=O)c1ccc(N2CCn3nc(NC(=O)NC)cc32)s1` [Compound I-211], for which the inhibition at 50 µM came out at 89%. `CNC(=O)Nc1nc2c(s1)CN(c1cc(Oc3ccccc3)nc(OC)n1)CC2` [Compound I-138]: the inhibition at 50 µM is no less than 95%.

For `COc1cc(N2CCc3nc(NC(=O)NCCC(=O)OC(C)(C)C)sc3C2)nc(OC)n1` [Compound I-143], the inhibition at 50 µM was no less than 95%. With `CS(=O)(=O)Nc1ccc(CC(=O)Nc2cc3n(n2)CCN3c2cccc(Cl)c2)cc1` [Compound I-243], the inhibition at 50 µM turned out to be 81%.

For `CNC(=O)Nc1cc2n(n1)CCN2c1ccc2c(c1)C(=O)CC2` [Compound I-216], the inhibition at 50 µM was no less than 95%. With `CNC(=O)Nc1cc2n(n1)CCN2C(=O)c1nc2ccccc2s1` [Compound I-40], the inhibition at 50 µM amounted to 73%. The same measure, in the same setting: to `O=C(O)CC(=O)Nc1cc2n(n1)CCN2c1cccc(Cl)c1` [Compound I-235] belongs 89%. Same read-out and setting: to `CNC(=O)Nc1cc2n(n1)CCN2c1cc(C(=O)N2CCOCC2)cc(-c2cccc(O)c2)c1` [Compound I-220] belongs no less than 95%; to `COc1cc(N2CCc3nc(NC(=O)c4cnco4)sc3C2)nc(OC)n1` [Compound I-204], 88%. Turning to `CNC(=O)Nc1cc2n(n1)CCN2c1cccc(S(C)(=O)=O)c1` [Compound I-191], the inhibition at 50 µM is no less than 95%. Regarding `CNC(=O)Nc1cc2n(n1)CCN2C(=O)c1ccccc1` [Compound I-5], the inhibition at 50 µM was 89%.

As for `CNC(=O)Nc1nc2c(s1)CN(c1cc(OC)nc(N)n1)CC2` [Compound I-145], the inhibition at 50 µM is no less than 95%. Same read-out and setting: to `CNC(=O)Nc1nc2c(s1)CN(C(=O)OC(C)(C)C)CC2` [Compound I-66] belongs 92%; to `CNC(=O)Nc1cc2n(n1)CCN2c1ccccc1` [Compound I-50], no less than 95%; to `COc1cccc(C(=O)Nc2cc3n(n2)CCN3c2cccc(Cl)c2)c1` [Compound I-239], 92%. In the case of `COc1cc(N2CCc3nc(NC(=O)C(=O)c4ccccc4)sc3C2)nc(OC)n1` [Compound I-259], the inhibition at 50 µM was found to be 89%. On the same count and under the same terms, to `CNC(=O)Nc1cc2n(n1)CCN(c1cc(OC)nc(OC)n1)C2` [Compound I-133] belongs no less than 95%.

Still in this test, the particulars now being: 0.5 h; compound at 10 μmol/L.
`COc1cc(N2CCc3nc(NC(=O)Cc4ccccc4C(=O)NC(C)(C)C)sc3C2)nc(OC)n1` [Compound I-337]: the inhibition at 10 µM was 82%. Same read-out and setting: in the case of `CN1CCc2cc(N3CCn4nc(NC(=O)c5ccncc5)cc43)ccc2C1=O` [Compound I-360] it was no less than 95%; in that of `COc1cc(N2CCc3nc(NC(=O)NCCC(=O)N4CCOCC4(C)C)sc3C2)nc(OC)n1` [Compound I-328], 87%; in that of `CN1CCc2cc(N3CCn4nc(NC(=O)c5cccc(N)c5)cc43)ccc2C1=O` [Compound I-473], no less than 95%. The same measure, in the same setting: in the case of `CN1CCc2cc(N3CCn4nc(NC(=O)c5cnc(N)o5)cc43)ccc2C1=O` [Compound I-381] it was no less than 95%; in that of `CN1CCc2cc(N3CCn4nc(NC(=O)c5ccccc5N)cc43)ccc2C1=O` [Compound I-500], 81%; in that of `CN1CCc2cc(N3CCn4nc(NC(=O)c5cccc(OC(C)(C)C(=O)OC(C)(C)C)c5)cc43)ccc2C1=O` [Compound I-469], 85%. Regarding `CN(C)C(=O)c1ccc(C(=O)Nc2cc3n(n2)CCN3c2ccc3c(c2)CCN(C)C3=O)s1` [Compound I-451], the inhibition at 10 µM came out at 90%.

Consider `CNC(=O)Nc1nc2c(s1)CN(c1cc(Cl)nc(OC)n1)CC2` [Compound I-333], for which the inhibition at 10 µM amounted to 88%. Same read-out and setting: in the case of `CN1CCc2cc(N3CCn4nc(NC(=O)c5cccc(NC(=O)OC(C)(C)C)c5)cc43)ccc2C1=O` [Compound I-466] it was 83%; in that of `CC(=O)c1ccc(C(=O)Nc2cc3n(n2)CCN3c2ccc3c(c2)CCN(C)C3=O)s1` [Compound I-440], 92%; in that of `COc1cccc(NC(=O)Nc2nc3c(s2)CN(c2cc(OC)nc(OC)n2)CC3)c1` [Compound I-295], 93%.

As to `CN1CCc2cc(N3CCn4nc(NC(=O)c5ccc(C(=O)O)cc5)cc43)ccc2C1=O` [Compound I-524], the inhibition at 10 µM stood at 92%. Same read-out and setting: in the case of `COC(=O)Nc1cc[nH]c1C(=O)Nc1cc2n(n1)CCN2c1cccc(OC)c1` [Compound I-364] it was no less than 95%; in that of `CN1CCc2cc(N3CCn4nc(NC(=O)Nc5ccsc5)cc43)ccc2C1=O` [Compound I-368], 95%. Still for that read-out and setting: to `CC(C)Oc1cccc(C(=O)Nc2cc3n(n2)CCN3c2ccc3c(c2)CCN(C)C3=O)c1` [Compound I-463] belongs no less than 95%; to `Cc1csc(C(=O)Nc2cc3n(n2)CCN3c2ccc3c(c2)CCN(C)C3=O)c1` [Compound I-361], 80%; to `CCOC(=O)CCCCC(=O)Nc1cc2n(n1)CCN2c1cccc(OC)c1` [Compound I-307], 86%. On the same count and under the same terms, to `COc1ccccc1C(=O)N1CCc2nc(NC(=O)Nc3ccccc3C(=O)NC(C)C)sc2C1` [Compound I-485] belongs 79%; to `COc1nc(Cl)cc(N2CCc3nc(NC(=O)NCCC(=O)NC(C)C)sc3C2)n1` [Compound I-554], 88%. Turning to `CN1CCc2cc(N3CCn4nc(NC(=O)OCc5ccccc5)cc43)ccc2C1=O` [Compound I-314], the inhibition at 10 µM was 88%.

Still in this test, the particulars now being: 0.5 h; compound at 50 μmol/L.
Take `CN1CCc2cc(N3CCn4nc(NC(=O)C(O)c5ccccc5)cc43)ccc2C1=O` (stereo not shown) [Compound I-352]: the inhibition at 50 µM was found to be 81%.
